According to ChEMBL document CHEMBL4359901, “Cyclic enaminone as new chemotype for selective cyclooxygenase-2 inhibitory, anti-inflammatory, and analgesic activities” (Eur J Med Chem, 2019):

Tested on: Rattus norvegicus
Experiment: Analgesic activity in Wistar albino rat assessed as reaction time at 12.5 mg/kg, ip measured after 120 mins for 15 secs by hot plate method (reference value: 4.32 +/- 0.52 sec)
Format: functional

**Q.** How did the Time turn out when `CC(=O)N(C1=CC(=O)CCC1)c1ccc(Cl)cc1` was run?
**A.** 10.15 s
